How the values were obtained:
[1] = system: E-RFC; experiment: Increase in no. E-RFC in vitro after incubation with L-Glu-L-Trp (breast cancer patients); format: cell-based, human
Protocol: Thirty six patients with breast cancer were treated with conventional radiation therapy (i.e., single doses of about 2-3 Gy daily for 10 days; total cumulative patient dose of 20-30 Gy). Following radiotherapy the patients were treated with L-Glu-L-Trp by injection of daily dosages im of 100 μg. The patients had been previously treated with radiation therapy (single doses 2 Gy; total dose 20-30 Gy).
Ram erythrocytes (E) were washed 4× in saline (2000 rpm/10 min.) and suspended at a final concentration of 1% in Medium 199. For determinations of the percentage of E-rosette forming T-lymphocytes (E-RFC) in a sample, 0.1 mL of a prepared lymphocyte suspension (2.5×10^6/ml) was incubated with 0.1 mL of the 1% ram erythrocyte suspension at 37° C. for 10 min., centrifuged at 800-1000 rpm for 5 min., maintained at 4° C. for 2 hrs., and finally resuspended and counted in a Goryaev chamber. Activated T-lymphocytes (i.e., having increased E-RFC capacity) were determined by mixing the test lymphocyte suspension with E, immediately centrifuging for 5 min. at 800-1000 rpm, resuspending the cells and counting the rosettes formed in a Goryaev chamber.

[2] = system: peripheral blood leukocytes; experiment: Peripheral blood leukocytes in cortisone suppressed rats; format: in vivo; details: for Basophils (% of Normal Control Value) / Basophils: % / Basophils: Total Cells / Eosinophils (% of Normal Control Value) / Eosinophils: % / Eosinophils: Total Cells / Leukocytes (% of Normal Control Value) / Leukocytes: Total Cells / Lymphocytes (% of Normal Control Value) / Lymphocytes: % / Lymphocytes: Total Cells / Monocytes (% of Normal Control Value) / Monocytes: % / Monocytes: Total Cells / Segmented Neutrophils (% of Normal Control Value) / Segmented Neutrophils: % / Segmented Neutrophils: Total Cells / Stab Neutrophils (% of Normal Control Value) / Stab Neutrophils: % / Stab Neutrophils: Total Cells: cortisone suppressed rats, 10 μg/kg im
Protocol: An immunocompromised state was established over a period of 80 days in experimental rats by administration of cortisone acetate at a dosage of 25 mg/kg twice weekly with tetracycline hydrocholoride po in drinking water. In the experimental group, L-Glu-L-Trp was administered in three treatment courses, each course consisting of 10 daily im injections of 10 μg/kg or 100 μg/kg, and each course of treatment separated from the next course by a 1 month interval. In the control group, saline was administered in the same three treatment course schedule. Differential blood counts were conducted on day 0 (Normal Control), day 59, and day 79 of the study. […] Results obtained with the 10 μg/kg treatment dose (presented in TABLE 73) were not markedly different than those obtained with the 100 μg/kg dose.

[3] = Post-term women (Protocol D); parameters: species or system human; details: in vivo
Protocol: Nineteen patients (19 women) post-term were treated with L-Glu-L-Trp and 48 women received conventional post-term treatment as a control group.

[4] = system: Dengue virus; experiment: Hemorrhagic Dengue Fever Protocol A; format: in vivo, human
Protocol: L-Glu-L-Trp was administered to 21 patients with hemorrhagic Dengue Fever, and 28 patients receiving conventional therapy served as controls. L-Glu-L-Trp was administered im single daily doses of 100 μg on each of 5 consecutive days as an adjunct to ongoing conventional therapy. […] The investigators also observed that L-Glu-L-Trp treated patients experienced a reduction in muscle and bone pain. Immunological indices in peripheral blood were also normalized.
Forty nine patients (20-30 years of age; Kinh nationality) with diagnosed Dengue Fever were entered into the trial. The patients were referred to the 175th Military Hospital in Ho Chi Minh City at the time of an epidemic of Dengue fever in the South […] Republic of Vietnam. Diagnosis was based on the criteria recommended by the World Health Organization (1986) using medical histories, and clinical and laboratory data. Serological analyses were conducted at the Arbovirus Infectious Diseases Laboratory of the Pasteur Institute in Ho Chi Minh City. […] Dyspeptic toxicosis, i.e., nausea and vomiting were rarely encountered (15% and 11.7%, respectively). Joint and muscle pains were pronounced, most commonly involving the spinal joints in the lumbar region (96.6%), joints of the pelvic girdle (82.2%), the ulnar joints (53.4%), as well as, the muscles of the lumbar (69%) and abdominal regions (69%). Exanthema (40.7%) and lymphadenopathy (46.7%) were evident in certain patients. […] Leukocytes during peak episodes of disease were recorded to be 4.60±0.17×10^9/L, and the absolute number of lymphocytes varied widely from 0.95 to 4.29×10^9/L.
Group 1 received conventional maintenance therapy consisting of detoxifying preparations and methods, e.g., fluids, fever control agents and the like. Group 2 received combination therapy, i.e., maintenance therapy and L-Glu-L-Trp, but only during periods of acute disease activity. L-Glu-L-Trp was administered at a dosage of 500 μg. The efficacy of the respective treatment protocols was evaluated by recording the most frequently used clinical indicia of Dengue disease activity: namely, the clinical indicia recorded in TABLE 45.

[5] = Combination L-Glu-L-Trp Therapy (n = 21)

L-Glu-L-Trp
Increase in no. E-RFC in vitro after incubation with L-Glu-L-Trp ([1]; cells taken After L-Glu-L-Trp therapy): 1.27 ± 0.14 | Increase in no. E-RFC in vitro after incubation with L-Glu-L-Trp ([1]; cells taken After Radiotherapy): 1.19 ± 0.13 | Increase in no. E-RFC in vitro after incubation with L-Glu-L-Trp ([1]; cells taken Before Radiotherapy): 1.23 ± 0.15 | Peripheral blood cells vs saline treated controls ([2]; 10 μg/kg and 100 μg/kg): increased the number of leukocytes, monocytes, and lymphocytes in the peripheral blood of cortisone-suppressed rats | Basophils (% of Normal Control Value) ([2]; Day 59): (71%) | Basophils: % ([2]; Day 59): 0.4 ± 0.2% | Basophils: Total Cells ([2]; Day 59): 0.05 ± 0.03 × 10^3/mg | Eosinophils (% of Normal Control Value) ([2]; Day 59): (150%) | Eosinophils: % ([2]; Day 59): 4.3 ± 0.4 % | Eosinophils: Total Cells ([2]; Day 59): 0.6 ± 0.1 × 10^9/L | Leukocytes (% of Normal Control Value) ([2]; Day 59): (75%) | Leukocytes: Total Cells ([2]; Day 59): 12.4 ± 1.8 × 10^9/L | Lymphocytes (% of Normal Control Value) ([2]; Day 59): (11%) | Lymphocytes: % ([2]; Day 59): 57 ± 1.5 % | Lymphocytes: Total Cells ([2]; Day 59): 7 ± 1 × 10^9/L | Monocytes (% of Normal Control Value) ([2]; Day 59): (128%) | Monocytes: % ([2]; Day 59): 7 ± 0.9 % | Monocytes: Total Cells ([2]; Day 59): 0.92 ± 0.2 × 10^9/L | Segmented Neutrophils (% of Normal Control Value) ([2]; Day 59): (73%) | Segmented Neutrophils: % ([2]; Day 59): 26.7 ± 1 % | Segmented Neutrophils: Total Cells ([2]; Day 59): 3.3 ± 0.4 × 10^9/L | Stab Neutrophils (% of Normal Control Value) ([2]; Day 59): (100%) | Stab Neutrophils: % ([2]; Day 59): 4.7 ± 0.6% | Stab Neutrophils: Total Cells ([2]; Day 59): 0.6 ± 0.1 × 10^9/L | Basophils (% of Normal Control Value) ([2]; Day 79): (29%) | Basophils: % ([2]; Day 79): 0.3 ± 0.2% | Basophils: Total Cells ([2]; Day 79): 0.02 ± 0.02 × 10^3/mg | Eosinophils (% of Normal Control Value) ([2]; Day 79): (75%) | Eosinophils: % ([2]; Day 79): 4 ± 0.9% | Eosinophils: Total Cells ([2]; Day 79): 0.3 ± 0.1 × 10^9/L | Leukocytes (% of Normal Control Value) ([2]; Day 79): (49%) | Leukocytes: Total Cells ([2]; Day 79): 8.06 ± 0.9 × 10^9/L | Lymphocytes (% of Normal Control Value) ([2]; Day 79): (7.7%) | Lymphocytes: % ([2]; Day 79): 59 ± 2 % | Lymphocytes: Total Cells ([2]; Day 79): 4.7 ± 1 × 10^9/L | Monocytes (% of Normal Control Value) ([2]; Day 79): (100%) | Monocytes: % ([2]; Day 79): 8 ± 0.8 % | Monocytes: Total Cells ([2]; Day 79): 0.7 ± 0.1 × 10^9/L | Segmented Neutrophils (% of Normal Control Value) ([2]; Day 79): (44%) | Segmented Neutrophils: % ([2]; Day 79): 24.6 ± 1.3 % | Segmented Neutrophils: Total Cells ([2]; Day 79): 2 ± 2 × 10^9/L | Stab Neutrophils (% of Normal Control Value) ([2]; Day 79): (58%) | Stab Neutrophils: % ([2]; Day 79): 4.4 ± 0.7 % | Stab Neutrophils: Total Cells ([2]; Day 79): 0.35 ± 0.1 × 10^9/L | Clinical outcome [3]: resulting in a normal delivery | Duration of Symptom: Eye muscle pain [4, 5]: 6.6 ± 0.8 h | Duration of Symptom: Fever, At day 2-4 of illness [4, 5]: 4.7 ± 0.2 h | Duration of Symptom: Fever, At day 2-6 of illness [4, 5]: 5.2 ± 0.3 h | Duration of Symptom: Headache [4, 5]: 8.1 ± 0.9 h | Duration of Symptom: Hepatomegally [4, 5]: 11.3 ± 0.8 h | Duration of Symptom: Insomnia [4, 5]: 7.1 ± 0.7 h | Duration of Symptom: Joint pain [4, 5]: 7.4 ± 0.7 h | Duration of Symptom: Loss of appetite [4, 5]: 7.5 ± 0.8 h | Duration of Symptom: Lumbar pain [4, 5]: 8.7 ± 0.7 h | Duration of Symptom: Skeletal muscle pain [4, 5]: 7.7 ± 1.1 h | Duration of Symptom: Splenomegally [4, 5]: 9.6 ± 0.7 h | Duration of Symptom: Waist/Pelvic girdle pain [4, 5]: 8.1 ± 0.8 h | Duration of Symptom: Weakness [4, 5]: 9.3 ± 0.8 h | Clinical outcome ([4]; in vivo): decrease in fever, reduction of toxic symptoms

Reference: patent US6368788B1 (priority 1987, dated 2002)
